These results are taken from US11891623B2, “Generation of neural stem cells from human trophoblast stem cells” (Accelerated BioSciences Corp., priority 2010, dated 2024).

One test concerns 6-OHDA-induced PD rats. The test is described as follows: Immunofluorescence tissue analysis of regeneration of the dopaminergic nigrostriatal pathway. Type of test: in vivo. The protocol: To obtain the brain sections, rats were anesthetized by sodium pentobarbitone (60 mg/kg i.p., Apoteksbolaget, Sweden) and trans-cardially perfused with saline (50 ml, 0.9% w/v) followed by ice-cold paraformaldehyde (200 ml, 10% w/v in 0.02 M PBS) were performed at 18- and 12-week in the acute and chronic PD rats, respectively. Brain sections were subjected for immunocytochemistry, immunohistochemistry, and immunofluorescence tissue analysis as indicated.
To further verify the regeneration of the dopaminergic nigrostriatal pathway after cell therapy, immunofluorescence tissue analysis was performed (TissueGnostics Gmbh, Vienna, Austria). Brain sections were investigated, including 14 acute PD rats (i.e., 2 at 1-week and 2 at 6-week post-injury and 2 controls, 6 at 12-weeks after cell transplantation and 2 controls) and 4 chronic PD rats (i.e., 2 at 12-week after cell therapy and 2 controls). In the SNC, 6-OHDA caused progressive neural degeneration, resulting in various sizes of cavity at 6 weeks post-injury (FIG. 31).

For another test, the system named is hTS cells. Put plainly: LIF dose effect on pluripotency transcription factors in hTS cells (RT-PCR, qPCR, flow cytometry). In kind it is cell-based, human. The protocol: The differential gene expressions of Oct4, Sox2, NANOG, fgfr2, FGF4, BMP4, Cdx2, and endogenous control β-actin (ACTB) were measured in the hTS and the hTS cells treated by 500 units LIF (Chemicon, Temecula, CA) by IQ5 Real-time PCR detection system (Bio-Rad Laboratories) that using fluorescein as an internal passive reference dye for normalization of well-to-well optical variation. PCR amplifications were carried out in a total volume of 25 μl, containing 12.5 μl of 2×SYBR Green supermix (Bio-Rad), 0.5 μl of 10 μM of each primer and 0.5 μl of cDNA samples and mixed with sterile water. The reaction was initiated at 95° C., 3 minutes, followed by 60 three-step amplification cycles consisting of 30 s denaturation at 95° C., 30 s annealing at 60° C., 15 s extension at 72° C. At final dissociation stage, it was run to generate a melting curve for verification of amplification product specificity. Real-time qPCR was monitored and analyzed by the Bio-Rad IQ5 optical system software version 2.0 (Bio-Rad). Relative mRNA levels were calculated using the comparative Ct method (Bio-Rad instruction manual) and presented with ratio to biological controls. ACTB transcript levels were confirmed to correlate well with total RNA amounts and therefore used for normalization throughout. All primer pairs used were confirmed to approximately double the amount of product within one cycle and to yield a single product of the predicted size. Primer sequences of Oct4, Sox2, NANOG, fgfr2, FGF4, BMP4, Cdx2, and endogenous control β-actin (ACTB) are shown in Supplemental Data Table 3.
Cells (5×10^6 cells/ml) were incubated with a variety of primary antibodies for 30 min and then incubated with the appropriate fluorescein isothiocyanate (FITC)-, phycoerythrin (PE)- or Rho-conjugated secondary antibody (Jackson ImmunoResearch, West Grove, PA) at adjusted dilution for 1 h at 4° C. After thorough washing, cells were re-suspended in PBS (1 ml) and subjected to flow cytometry (FACScan, BD Biosciences, San Jose, CA). The data were analyzed with Cell-Quest software (BD Biosciences).
The effects of LIF withdrawal on human trophoblast stem (hTS) cells were examined since hTS cells expresses pluripotent gene markers of both embryonic stem (ES) cells and trophoblastic stem (TS) cells such as Oct4, Nanog, Sox2, and Cdx2 (FIG. 1a). hTS cells were treated with different dosages of LIF, i.e., 500 (mimic at ampulla), 250 (mimic at mid-portion), and 125 units (mimic at isthmus) for 3 days each, showing that LIF promoted Oct4 expression but represses Cdx2, Nanog, and Sox2 expressions in a dose-dependent manner (FIG. 1b). Quantitative PCR analyses supported these findings (FIG. 1c). As the relative expression ratio of Oct4 to Cdx2 enables to determine cell fate in early embryonic differentiation (Niwa et al., 2000), the Oct4/Cdx2 ratio ([…]) appeared to be the highest at the ampulla which decreased to 0.2-fold at mid-portion and became near one at isthmic portion (FIG. 1d). This decreasing trend of Oct4/Cdx2 ratio actually facilitates the differentiation towards trophectoderm fate (Niwa et al., 2005). […] This role of rescuer was further supported by the prominently high Nanog/Oct4 ratio of LIF with 125 units compared to the ratio of LIF with 500 units and the apparent increase of Cdx2/Oct4 ratio at LIF with 125 units (FIG. 1e) No apparent change of Sox2/Cdx2 was found.
On the technique in general: Quantitative PCR measures a nucleic acid by following its amplification.

A further test concerns Huh-7 cells. Put plainly: BBP-induced signaling in Huh-7 cells (RT-PCR, Western blot, immunofluorescence). Type of test: cell-based, human. The following applies: PD98059 20 μM, 1 h pretreatment. The protocol:
Huh-7 cells (3×10^5) were seeded into a 6-well dish and incubated for 24 h. Cells cultured serum-free medium overnight were treated with BBP (1 μM) for various time intervals. After BBP stimulation, cells were washed twice with PBS. Total RNAs were extracted by TRIzol methods (Invitrogen). RNA (2 μg) was used to synthesize cDNA by Reverse Transcription System (Promega). The c-DNAs were amplified by the specific primers. The primer pairs were designed as follows: AhR, forward 5′-TACTCTGCCGCCCAAACTGG-3′ (SEQ ID NO:49), reverse 5′-GCTCTGCAACCTCCGATTCC-3′ (SEQ ID NO:50); β-actin, forward 5′-CTC GCT GTC CAC CTT CCA-3′ (SEQ ID NO:51), reverse 5′-GCT GTC ACC TTC ACC GTTC-3′ (SEQ ID NO:52). PCR conditions were set at 95° C. for 5 min and 95° C. for 30 sec, 54° C. for 30 sec, 72° C. for 1 min followed by 72° C. for 10 min (36 cycles). The products were separated by 2% agarose gels and visualized by ethidium bromide.
Huh-7 cells (1×10^6) were seeded into 10 cm dish and cultured overnight. The culture medium was changed to serum-free medium for another night. Cells were treated with BBP (1 μM) for various time intervals. […] Cells were then washed twice with ice-cold PBS and lysed by RIPA lysis buffer (Minipore). Protein concentration was measured by BCA protein assay kit (Thermo). Equal amounts of protein (30 μg protein) were resolved by 8% SDS-PAGE, transferred onto PVDF membrane, and blocked with 5% non-fat dry milk for 1 h at room temperature. After blocking, the membrane was incubated with the primary antibodies including AhR (1:1000), Cox-2 (1:1000), Gαq/11 (1:100), Gβ (1:100), β-actin (1:5000), p44/42 MAP kinase (1:1000) or phospho-p44/42 MAP kinase (1:1000) overnight at 4° C. Cells were washed three times with PBST and then incubated with HRP conjugated secondary antibodies for 1 h at room temperature. After washing, the blot was visualized using an enhanced chemiluminescence kit (ECL) (Amersham).
Cells with or without transfection by AhR siRNA were cultured and treated with BBP (1 μM) for 5 and 15 min each. After treatment with primary and secondary antibodies for AhR and Gαq/11, cells were subjected to confocal immunofluorescence microscopy to analyze the dynamic movement in the cell compartments.
For orientation: A western blot detects proteins with antibodies after separation by electrophoresis.

Regarding `NCCc1cc(O)c(O)cc1O` [6-OHDA, 6-hydroxydopamine], the “DA (TH+) neurons in SNC compared to intact side” value in the test on 6-OHDA-induced PD rats (1-week post-injury) is 48%; in the test with 6-OHDA-induced PD rats (6-week post-injury), 13%. In addition, the “DA (TH+) neurons in striatum compared to intact side” value is reported as 78% in the test on 6-OHDA-induced PD rats (1-week post-injury) and 4% in the test on 6-OHDA-induced PD rats (6-week post-injury). In addition, the “GFAP(+) cells in lesioned striatum compared to intact side” value with 6-OHDA-induced PD rats (6 weeks post-injury) is 65.5%.
For the compound leukemia inhibitory factor [LIF], the Oct4/Cdx2 ratio result is listed as “one” in the test with hTS cells (LIF 125 units (mimic at isthmus), 3 days); 0.2 fold with hTS cells (LIF 250 units (mimic at mid-portion), 3 days); 0.4 fold in the test on hTS cells (LIF 500 units (mimic at ampulla), 3 days). The Nanog/Cdx2 ratio with hTS cells (LIF 125 units, 3 days) turned out to be 2 fold; in the test with hTS cells (LIF 500 units, 3 days), 0.1 fold. Besides, in the test with hTS cells (LIF 500, 250, 125 units, 3 days), the Oct4 expression result is listed as “promoted”. For the same compound, the “Cdx2, Nanog, and Sox2 expressions” value with hTS cells (LIF 500, 250, 125 units, 3 days, dose-dependent) was “represses”. Moreover, the Nanog expression in the test with hTS cells (LIF-induced cells, isthmus level (125 U/ml), flow cytometry) is given as 62.5%. Further, the “RA-induced Nanog expression” value in the test with hTS cells (hTS cells preincubated with RA (10 μM) overnight, then LIF 125, 250, 500 U/ml 1 day, flow cytometry) is given as “suppresses”.
For the compound `COc1cccc(-c2cc(=O)c3ccccc3o2)c1N` [PD98059], the “BBP-induced ERK phosphorylation and COX-2 activation” value with Huh-7 cells is on record as “blocked”.
